In brackets after ≈: the same amount, converted by molar mass.
Columns and labels:
Type in all cases: cell-based
Edwardsiella tarda = test: MIC, microdilution in 96-well plates; conditions: D: Edwardsiella tarda
Summary of the method: (§1)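 Values come from visual inspection: the lowest concentration inhibiting growth with no turbidity. Strains grew in Luria-Bertani media at 37° C. with shaking for 16-18 hours after seeding at 1:10000, against triplicate 2-fold compound dilutions.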

E. coli BW25113 = test: MIC, microdilution in 96-well plates; conditions: Escherichia coli, BW25113, B: E. coli BW25113; read-out: MIC
Summary of the method: as §1

[1] = test system: Staphylococcus saprophyticus subsp. saprophyticus; test: MIC, 20-strain panel
Summary of the method: as §1

Shigella flexneri = test: MIC, 20-strain panel; conditions: G: Shigella flexneri
Summary of the method: as §1

E. coli JW5503 (deltolC) = test: MIC, 20-strain panel; conditions: Escherichia coli, C: E. coli JW5503 (deltolC)
Summary of the method: as §1

[2] = test system: Staphylococcus epidermidis; test: MIC, 20-strain panel
Summary of the method: as §1

[3] = test system: Salmonella enterica subsp. enterica typhimurium; test: MIC, 20-strain panel; conditions: F: Salmonella enterica subsp. enterica Typhimurium
Summary of the method: as §1

Streptococcus pyogenes = test: MIC, 20-strain panel
Summary of the method: as §1

[4] = test system: Staphylococcus aureus subsp. aureus; test: MIC, 20-strain panel; conditions: H: Staphylococcus aureus subsp. aureus, read-out: MIC
Summary of the method: as §1

Streptococcus agalactiae = test: MIC, 20-strain panel
Summary of the method: as §1

[5] = test system: Klebsiella pneumoniae subsp. pneumoniae; test: MIC, 20-strain panel; conditions: E: Klebsiella pneumoniae subsp. pneumoniae
Summary of the method: as §1

E. coli MG1655 = test: MIC, 20-strain panel; conditions: Escherichia coli, MG1655, A: E. coli MG1655; read-out: MIC
Summary of the method: as §1

Compound | MIC (Edwardsiella tarda) [µg/mL] | MIC (E. coli BW25113) [µg/mL] | MIC [1] [µg/mL] | MIC (Shigella flexneri) [µg/mL] | MIC (E. coli JW5503 (deltolC)) [µg/mL] | MIC [2] [µg/mL] | MIC [3] [µg/mL] | MIC (Streptococcus pyogenes) [µg/mL] | MIC [4] [µg/mL] | MIC (Streptococcus agalactiae) [µg/mL] | MIC [5] [µg/mL] | MIC (E. coli MG1655) [µg/mL]
O=S(=O)(N[C@@H]1CCN(Cc2ccc(OC3CC3)cc2)C1)c1cnc2ccccc2c1 [Compound 95] | > 8 | > 8 | > 8 | > 8 | > 8 | > 8 | > 8 | > 8 | > 8 | > 8 | > 8 | > 8
O=S(=O)(N[C@@H]1CCN(Cc2ccc(OC3CC3)cc2)C1)c1cccc2cccnc12 [Compound 96] | > 8 | > 8 | > 8 | > 8 | 1 (≈ 2.36 µM) | > 8 | ~8 (≈ 18.9 µM) | > 8 | > 8 | > 8 | > 8 | > 8
N#Cc1cccc(S(=O)(=O)N[C@@H]2CCN(Cc3ccc(N4CCCC4=O)cc3)C2)c1 [Compound 97] | > 8 | > 8 | > 8 | > 8 | 4 (≈ 9.42 µM) | > 8 | > 8 | > 8 | > 8 | > 8 | > 8 | > 8
CC(C)Oc1c(Cl)cc(CN2CC[C@@H](NS(=O)(=O)c3cccc(C(F)(F)F)c3)C2)cc1Cl [Compound 98] | > 8 | > 8 | > 8 | > 8 | > 8 | > 8 | > 8 | > 8 | > 8 | > 8 | > 8 | > 8
O=C1CCCN1c1ccc(CN2CC[C@@H](NS(=O)(=O)c3cccc(C(F)(F)F)c3)C2)cc1 [Compound 99] | > 8 | > 8 | > 8 | > 8 | 2 (≈ 4.28 µM) | > 8 | > 8 | > 8 | > 8 | > 8 | > 8 | > 8
O=C1CCCN1c1ccc(CN2CC[C@@H](NS(=O)(=O)c3cccc(OC(F)(F)F)c3)C2)cc1 [Compound 100] | > 8 | > 8 | > 8 | > 8 | 2 (≈ 4.14 µM) | > 8 | > 8 | > 8 | > 8 | > 8 | > 8 | > 8
N#Cc1cccc(S(=O)(=O)N[C@@H]2CCN(Cc3ccc(-c4ccc(Cl)cc4)cc3)C2)c1 [Compound 101] | > 8 | > 8 | > 8 | > 8 | 2 (≈ 4.42 µM) | 8 (≈ 17.7 µM) | > 8 | > 8 | ~8 (≈ 17.7 µM) | > 8 | > 8 | > 8
O=S(=O)(N[C@@H]1CCN(Cc2ccc(-c3ccc(Cl)cc3)cc2)C1)c1cccc(C(F)(F)F)c1 [Compound 102] | > 8 | > 8 | > 8 | > 8 | ~8 (≈ 16.2 µM) | 4 (≈ 8.08 µM) | > 8 | ~8 (≈ 16.2 µM) | 8 (≈ 16.2 µM) | > 8 | > 8 | > 8
O=S(=O)(N[C@@H]1CCN(Cc2ccc(-c3ccc(Cl)cc3)cc2)C1)c1cccc(OC(F)(F)F)c1 [Compound 103] | > 8 | > 8 | > 8 | > 8 | ~8 (≈ 15.7 µM) | 8 (≈ 15.7 µM) | > 8 | ~8 (≈ 15.7 µM) | 8 (≈ 15.7 µM) | > 8 | > 8 | > 8
O=S(=O)(N[C@@H]1CCN(Cc2ccc(OC3CC3)cc2)C1)c1cccnc1 [Compound 104] | > 8 | > 8 | > 8 | > 8 | > 8 | > 8 | > 8 | > 8 | > 8 | > 8 | > 8 | > 8
O=S(=O)(N[C@@H]1CCN(Cc2ccc(-c3ccccc3)cc2)C1)c1cccc2cccnc12 [Compound 105] | > 8 | > 8 | > 8 | > 8 | 0.125 (≈ 0.282 µM) | > 8 | 8 (≈ 18 µM) | > 8 | > 8 | > 8 | > 8 | > 8
